Values of other authors, collected in patent US20250170152A1, “Cannabinoid Dosage Form” (priority 2022, published 2025).
Read-outs that look alike come from different tables or passages of the source.

How the values were obtained:
[1] = not given; remark: listed apart in the source
[2] = oral THC formulations
[3] = oral 800 mg CBD, eight subjects (Haney et al., 2016)
[4] = 20 mg/kg/day CBD groups, EMA LGS/DS Assessment Report (Epidiolex)

Compound | mean Cmax (one hour after oral capsule containing 5.4 mg CBD (Nadulski et al., 2005a)) | mean Cmax (oral 10 mg CBD (Guy and Robson, 2004b)) | mean Cmax [3] | mean Tmax [3] | time CBD remained detectable after administration (oral capsule 5.4 mg CBD (Nadulski et al., 2005b)) | mean Cmax (oral capsule 5.4 mg CBD, subset (n=12) with standard breakfast meal 1 h after the capsules) | TEAE decrease of appetite, incidence [1, 4] | weight loss, incidence [1, 4] | TEAE of diarrhoea, incidence ([1]; 5-20 mg/kg/day, LGS/DS population (Epidiolex)) | TEAE of diarrhoea, incidence ([1]; 25-50 mg/kg/day, TSC population, EMA TSC Assessment Report (Epidiolex)) | delay to reach peak plasma concentration [2]
C=C(C)C1CCC(C)=CC1c1c(O)cc(CCCCC)cc1O (centres unmarked) [CBD, 2-[3-methyl-6-(1-methylethenyl)-2-cyclohexen-1-yl]-5-pentyl-1,3-benzenediol] | 0.93 ng/mL | 2.47 ng/mL | 77.9 ng/mL | 3.0 h | 3 to 4 h | 1.13 ng/mL | 22% | 11% | 12.9-21.2% | 30.7-56.2% | –
CCCCCc1cc(O)c2c(c1)OC(C)(C)[C@@H]1CCC(C)=C[C@@H]21 [THC, delta-9-tetrahydrocannabinol] | – | – | – | – | – | – | – | – | – | – | ~120 min
